{
  "source": "patent US20260263624A1",
  "about": "“COMBINATION OF ANTIBODY-DRUG CONJUGATE AND CANCER THERAPY, AND USE THEREOF” (GENEQUANTUM HEALTHCARE (SUZHOU) CO., LTD., priority 2023, published 2026)",
  "key": {"[1]": {"test_system": "BT-474 cells (breast cancer HER2-high CDX model)", "experiment": "In vivo efficacy of GQ01 with chemotherapies in human breast cancer CDX model, BT-474 (Example 5)", "design": "species or system BALB/c nude mice", "details": "GQ01 5 mg/kg single dose; for TGI (%): day 25; for Tumor volume (mm^3), Mean ± SEM: end day (day 25)", "protocol": "I. Breast cancer tumor cells were passaged in vivo from BT-474 cells (ATCC, Lot #HTB-20). The cells in exponential growth stage were collected and counted for tumor inoculation. 0.2 mL of matrix gel buffer (PBS: Matrigel=1:1) was used to subcutaneously inject 2×10^6 cells into the right flank of SPF female BALB/c nude mice aged 6-8 weeks. Four days before cell inoculation, BALB/c nude mice had been subcutaneously inoculated with estrogen tablet.\n(§1) II. 10 days after inoculation, the tumor diameter was measured with a caliper and the tumor volume was calculated according to the formula V=0.5 a×b2 (wherein a is the long diameter of the tumor and b is the short diameter of the tumor). […] Each group included 6 mice. The day of first administration was defined as day 0. […] The tumor volume of mice in each group was measured twice a week."}, "[2]": {"test_system": "HCC1954 cells (breast cancer HER2-high CDX model)", "experiment": "In vivo efficacy of GQ01 with chemotherapies in human breast cancer CDX model, HCC1954 (Example 6)", "design": "species or system BALB/c nude mice", "details": "for Tumor volume (mm^3), Mean ± SEM: end day (day 32)", "protocol": "I. HCC1954 cells in exponential growth stage were collected and counted for tumor inoculation. 0.2 mL of matrix gel buffer (PBS: Matrigel=1:1) was used to subcutaneously inject 1×10^6 cells into the right flank of SPF female BALB/c nude mice aged 6-8 weeks.\nas §1, with “9” for “10”"}, "[3]": {"details": "capecitabine 300 mg/kg QD 2 weeks, combination 5 + 300 mg/kg"}, "[4]": {"details": "capecitabine 300 mg/kg QD 2 weeks, combination 5 + 300 mg/kg, listed as capecitabine"}, "[5]": {"details": "paclitaxel 10 mg/kg BIW 4 weeks, combination 5 + 10 mg/kg"}, "[6]": {"details": "paclitaxel 10 mg/kg BIW 4 weeks, combination 5 + 10 mg/kg, listed as paclitaxel"}},
  "data": [
    {"smiles": "CCCCCOC(=O)Nc1nc(=O)n([C@@H]2O[C@H](C)[C@@H](O)[C@H]2O)cc1F", "note": "[Capecitabine, capecitabine]", "values": [
      {"measurement": "TGI (%)", "setting": "[1]; [3]", "value": 21.01, "unit": "%"},
      {"measurement": "TGI (%)", "setting": "[1]; [4]", "value": 21.01, "unit": "%"},
      {"measurement": "Tumor volume (mm^3), Mean ± SEM", "setting": "[1]; [3]", "value": "858 ± 280", "unit": "mm^3"},
      {"measurement": "Tumor volume (mm^3), Mean ± SEM", "setting": "[1]; [4]", "value": 858, "unit": "mm^3"},
      {"measurement": "Tumor volume (mm^3), Mean ± SEM", "setting": "[2]; table prints GQ01 5 mg/kg and 5 + 300 mg/kg, text GQ01 2 mg/kg single dose, capecitabine 300 mg/kg QD 2 weeks", "value": "1,183 ± 222 mm^3"},
      {"measurement": "Tumor volume (mm^3), Mean ± SEM", "setting": "[2]; table prints GQ01 5 mg/kg and 5 + 300 mg/kg, text GQ01 2 mg/kg single dose, capecitabine 300 mg/kg QD 2 weeks, listed as capecitabine", "value": 1183, "unit": "mm^3"},
      {"measurement": "TGI (%)", "setting": "[2]; text: day 32, footnote: day 25, table prints GQ01 5 mg/kg and 5 + 300 mg/kg, text GQ01 2 mg/kg single dose, capecitabine 300 mg/kg QD 2 weeks", "value": 29.05, "unit": "%"},
      {"measurement": "TGI (%)", "setting": "[2]; text: day 32, footnote: day 25, table prints GQ01 5 mg/kg and 5 + 300 mg/kg, text GQ01 2 mg/kg single dose, capecitabine 300 mg/kg QD 2 weeks, listed as capecitabine", "value": 29.05, "unit": "%"}
    ]},
    {"smiles": "CC(=O)O[C@H]1C(=O)[C@@]2(C)[C@H]([C@H](OC(=O)c3ccccc3)[C@]3(O)C[C@H](OC(=O)[C@H](O)[C@@H](NC(=O)c4ccccc4)c4ccccc4)C(C)=C1C3(C)C)[C@]1(OC(C)=O)CO[C@@H]1C[C@@H]2O", "note": "[Paclitaxel, paclitaxel]", "values": [
      {"measurement": "TGI (%)", "setting": "[1]; [5]", "value": 58.54, "unit": "%"},
      {"measurement": "TGI (%)", "setting": "[1]; [6]", "value": 58.54, "unit": "%"},
      {"measurement": "Tumor volume (mm^3), Mean ± SEM", "setting": "[1]; [5]", "value": "520 ± 87", "unit": "mm^3"},
      {"measurement": "Tumor volume (mm^3), Mean ± SEM", "setting": "[1]; [6]", "value": 520, "unit": "mm^3"},
      {"measurement": "TGI (%)", "setting": "[2]; day 32, GQ01 2 mg/kg single dose, paclitaxel 10 mg/kg BIW 4 doses, combination 2 + 10 mg/kg, trastuzumab 5 + pertuzumab 5 (single dose) + paclitaxel 10 mg/kg", "value": 26.60, "unit": "%"},
      {"measurement": "TGI (%)", "setting": "[2]; day 32, GQ01 2 mg/kg single dose, paclitaxel 10 mg/kg BIW 4 doses, combination 2 + 10 mg/kg, trastuzumab 5 + pertuzumab 5 (single dose) + paclitaxel 10 mg/kg, listed as paclitaxel", "value": 26.60, "unit": "%"},
      {"measurement": "Tumor volume (mm^3), Mean ± SEM", "setting": "[2]; GQ01 2 mg/kg single dose, paclitaxel 10 mg/kg BIW 4 doses, combination 2 + 10 mg/kg, trastuzumab 5 + pertuzumab 5 (single dose) + paclitaxel 10 mg/kg", "value": "1,219 ± 124 mm^3"},
      {"measurement": "Tumor volume (mm^3), Mean ± SEM", "setting": "[2]; GQ01 2 mg/kg single dose, paclitaxel 10 mg/kg BIW 4 doses, combination 2 + 10 mg/kg, trastuzumab 5 + pertuzumab 5 (single dose) + paclitaxel 10 mg/kg, listed as paclitaxel", "value": 1219, "unit": "mm^3"}
    ]}
  ]
}
